Values joined by “and” are separate entries in the source; they are usually repeats but may differ in a detail not shown here. Equal entries are not always repeated.
Key:
[1] = system: glomerular lesions; renal tubulointerstitial lesions; settings: International Publication WO 2004/024185 and 01/72730 pamphlets; cited from earlier work
[2] = system: rat unilateral ureteral obstruction release model; experiment: Rat unilateral ureteral obstruction release model: glomerular and tubulointerstitial lesions, Asc-1+ cells; format: in vivo, SD rat; settings: for Improvement of glomerular lesion: Yes = lesioned glomeruli per 50 glomeruli reduced to less than or equal to half the control average; for Improvement of tubulointerstitial lesion: Yes = reduced to less than or equal to half the control average;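 on Tubulointerstitial lesion: atrophy of tubules associated with dilatation of tubules (score): ± very light + light ++ moderate +++ high change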;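 on Tubulointerstitial lesion: fibrosis of interstitial tissue (score): ± very light + light ++ moderate +++ high change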;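 on Tubulointerstitial lesion: thickness of basement membrane (score): ± very light + light ++ moderate +++ high change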
Text: An experimental model was produced in accordance with the method devised and established by Ishibashi (Michio Ishibasi et al., Japanese Journal of Nephrology 42: 248, 2000), using a 8 to 9-week-old male SD rat weighing about 280 g. […] On day 14 after obstruction, the obstruction was released, and the urinary tract was reconstructed using a cuff. That is, 14 days later, the ligated ureteral obstruction part was partially removed, and a 25 gauge polyethylene tube (made by Nippon Sherwood) as a cuff was inserted from the lower normal ureteral stump and placed in the lumen. Next, the cuff was placed also in the expanded upper ureter, and both parts were ligated for fixation with a 7-0 nylon suture to reconstruct the urinary tract. At the same time, the right kidney was removed. The weight was measured after obstruction release, and the blood was collected on days 2, 5, and 7 after release for serum creatinine determination. On day 7, the rat was sacrificed under anesthesia and the left obstruction release kidney was removed. The weight of the removed kidney was measured, and the kidney pathomorphological examination was performed.
The biological effects of the test compound were studied in vivo using the model obtained in the above procedure 1). The test compound in the form of bulk powder was dissolved in sterilized physiologic saline together with gum arabic, where the concentration of the gum arabic was adjusted to 5% and the concentration of the test compound was adjusted to 30 mg/ml. The amount of 30 mg/kg was subcutaneously administered every day. Daily administration was continued for 21 days during 14 days of obstruction and 7 days after obstruction release. For controlled comparison, the solvent of 5% gum arabic was administered alone.
On day 22 from the administration of the test compound, the rat was sacrificed under anesthesia, and the left obstruction release kidney was removed and neutral formalin fixed. The fixed renal tissue embedded in paraffin was sliced into 4-micrometer-thick pieces for examination.
The tissue section was observed under a microscope in order to count the number of glomeruli and the number of glomeruli having a lesion (expansion of a tubular pole associated with swollen Bowman's capsule epithelial cells or hypertrophy of a Bowman's capsule basal membrane) in the field of view, and the number of glomeruli having the lesion (referred to as “lesioned glomerulus”) per 50 glomeruli was calculated.
As for the effectiveness to improve of glomerular lesions, when the number of lesioned glomeruli per 50 glomeruli was reduced to less than or equal to half the average number of those of the control group, it was determined as improved.
An affinity-purified anti-rat Asc-1 polyclonal antibody (rabbit) was prepared as follows: that is, in order to prepare an anti-Asc-1 peptide polyclonal antibody (rabbit), an oligopeptide (PSPLPITDKPLKTQC (SEQ. ID NO: 4)) corresponding to amino acid residues of 517-530 of Asc-1 was synthesized (see J Biol Chem (2000); 275: 9690-9698), keyhole limpet hemocyanine was bound to the C-terminal cysteine as an adjuvant, and […] was immunized therewith. The serum was collected on days 7 and 14 from the immunization. The serum was concentrated by means of an adsorption-dissociation operation using an affinity column to which an oligopeptide corresponding to amino acid residues of 517-530 of Asc-1 was bound in order to obtain an affinity-purified antibody having a protein content of 0.5 mg/ml. As for immunopathological examination, paraffin rat […] diluted with PBS to the optimal concentration was used.
The immune tissue staining was performed based on the protocol of Ventana HX system bench mark (Ventana Japan K.K., Tokyo) including the automated immunostaining device manufactured by Ventana Japan K.K. After deparaffinization, the tissue section was heat-treated at 100° C. for 1 hour. […]

[3] = group average ± standard deviation
[4] = individual animal, 30 mg/kg s.c. daily for 21 days, 30 mg/kg
[5] = individual animal, points: ± 0.5, + 1, ++ 2, +++ 3
[6] = individual animal, sum of the three scores

For `C[C@@H](OC[C@]1(Oc2ccc(F)cc2)CCC(=O)O1)c1ccc2ccccc2c1` [(4-2)], the “known action on renal tubulointerstitial lesions” value [1] is given as “selectively inhibit the renal tubulointerstitial lesions”, the “Glomerular lesion: number of lesioned glomeruli per 50 glomeruli, expansion of tubular pole associated with swollen Bowman's capsule epithelial cells” value [2, 3] is given as 11 ± 6 per 50 glomeruli and the “Glomerular lesion: number of lesioned glomeruli per 50 glomeruli, hypertrophy of Bowman's capsule basal membrane” value [2, 3] is given as 18 ± 9 per 50 glomeruli. The “Number of Asc-1+ cells per 50 glomeruli” value [2, 3] was 4.03 ± 3.06 per 50 glomeruli, the “Tubulointerstitial lesion: atrophy of tubules associated with dilatation of tubules (score)” value (shortened to “Tubulointerstitial lesion: atrophy”) [2, 3] was 1.0 ± 0 and the “Tubulointerstitial lesion: fibrosis of interstitial tissue (score)” value (“Tubulointerstitial lesion: fibrosis” below) [2, 3] was 1.5 ± 0.6. The “Tubulointerstitial lesion: thickness of basement membrane (score)” value (“Tubulointerstitial lesion: thickness” for short) [2, 3] was 0.9 ± 0.3, the “Tubulointerstitial lesion: total score” value [2, 3] was 3.4 ± 0.5 and the “Glomerular lesion: number of lesioned glomeruli per 50 glomeruli, expansion of tubular pole associated with swollen Bowman's capsule epithelial cells” value [2, 4] was 16 per 50 glomeruli (2×) and 6 per 50 glomeruli and 7 per 50 glomeruli. The “Glomerular lesion: number of lesioned glomeruli per 50 glomeruli, hypertrophy of Bowman's capsule basal membrane” value [2, 4] was 29 per 50 glomeruli and 9 per 50 glomeruli and 20 per 50 glomeruli and 13 per 50 glomeruli, the “Number of Asc-1+ cells per 50 glomeruli” value [2, 4] was 1.81 per 50 glomeruli and 7.39 per 50 glomeruli and 5.83 per 50 glomeruli and 1.10 per 50 glomeruli and the “Improvement of glomerular lesion” value ([2]; individual animal) was “No (2×) and Yes (2×)”. The “Improvement of tubulointerstitial lesion” value ([2]; individual animal) was “No and Yes (3×)”, the “Tubulointerstitial lesion: atrophy” value [2, 5] was 1 and the “Tubulointerstitial lesion: fibrosis” value [2, 5] was 2 (2×) and 1 (2×). For the same compound, the “Tubulointerstitial lesion: thickness” value [2, 5] was 1 (3×) and 0.5 and the “Tubulointerstitial lesion: total score” value [2, 6] was 4.0 and 3.5 and 3.0 (2×).
For `C[C@@H](OC[C@@]1(Oc2ccc(F)cc2)CCC(=O)O1)c1ccc2ccccc2c1` [(3-2)], the “known action on glomerular lesions” value [1] is given as “selectively inhibit the glomerular lesions”, the “Glomerular lesion: number of lesioned glomeruli per 50 glomeruli, expansion of tubular pole associated with swollen Bowman's capsule epithelial cells” value [2, 3] is given as 6 ± 3 per 50 glomeruli and the “Glomerular lesion: number of lesioned glomeruli per 50 glomeruli, hypertrophy of Bowman's capsule basal membrane” value [2, 3] is given as 6 ± 1 per 50 glomeruli. For the same compound, the “Number of Asc-1+ cells per 50 glomeruli” value [2, 3] was 11.06 ± 3.51 per 50 glomeruli, the “Tubulointerstitial lesion: atrophy” value [2, 3] was 2.6 ± 0.9 and the “Tubulointerstitial lesion: fibrosis” value [2, 3] was 2.2 ± 0.4. The “Tubulointerstitial lesion: thickness” value [2, 3] was 2.2 ± 0.4, the “Tubulointerstitial lesion: total score” value [2, 3] was 7.0 ± 1.2 and the “Glomerular lesion: number of lesioned glomeruli per 50 glomeruli, expansion of tubular pole associated with swollen Bowman's capsule epithelial cells” value [2, 4] was 10 per 50 glomeruli and 6 per 50 glomeruli (2×) and 5 per 50 glomeruli and 3 per 50 glomeruli. The “Glomerular lesion: number of lesioned glomeruli per 50 glomeruli, hypertrophy of Bowman's capsule basal membrane” value [2, 4] was 6 per 50 glomeruli and 5 per 50 glomeruli (2×) and 8 per 50 glomeruli and 7 per 50 glomeruli, the “Number of Asc-1+ cells per 50 glomeruli” value [2, 4] was 9.48 per 50 glomeruli and 9.55 per 50 glomeruli and 14.91 per 50 glomeruli and 6.84 per 50 glomeruli and 14.52 per 50 glomeruli and the “Improvement of glomerular lesion” value ([2]; individual animal) was “Yes”. The “Improvement of tubulointerstitial lesion” value ([2]; individual animal) was “No”, the “Tubulointerstitial lesion: atrophy” value [2, 5] was 3 (4×) and 1 and the “Tubulointerstitial lesion: fibrosis” value [2, 5] was 2 (4×) and 3. For the same compound, the “Tubulointerstitial lesion: thickness” value [2, 5] was 2 (4×) and 3 and the “Tubulointerstitial lesion: total score” value [2, 6] was 7 (2×) and 8 (2×) and 5.

Reference: patent US20090041719A1, “Method for screening therapeutic agent for glomerular disorder” (priority 2006, published 2009)
